The structures appear in SMILES notation. In brackets after ≈: the same amount, converted by molar mass. Like-named read-outs stand apart in the source and are kept apart here. A value given as a limit tells only on which side of the number the result lay.

The assay concerns Mycobacterium tuberculosis H37Rv strains. The experiment in a line: In vitro assay for antimicrobial susceptibility (microplate Alamar blue MIC). The assay is classed as cell-based. The following applies: Mycobacterium tuberculosis, H37RV, read-out: MIC (μg/mL) against H37Rv. (In general: Resazurin is reduced to fluorescent resorufin, in cell work by metabolically active cells.)
The mark [1] stands for this setting: 7H9, Alamar blue, inhibition ≧90%.
Setting [2] is: in vitro, Mycobacterium tuberculosis H37Rv strains.

Turning to `CC(C)/N=c1\cc2n(-c3ccc(F)cc3)c3ccccc3nc-2cc1Nc1ncccc1[N+](=O)[O-]` [TBI-1052, 5-(4-Fluorophenyl)-3-(1-methylethyl)imino-2-(3-nitro-2-pyridyl)amino-3,5-dihydrophenazine], under setting [1], the MIC amounted to 0.022 µg/mL (≈ 0.047 µM). Take `CC(C)/N=c1\cc2n(-c3cccc(C(F)(F)F)c3)c3ccccc3nc-2cc1Nc1cccnc1` [TBI-730, 5-(3-Trifluoromethylphenyl)-3-(1-methylethyl)imino-2-(3-pyridyl)amino-3,5-dihydrophenazine]: the MIC under setting [2] was determined as 0.205 µg/mL (≈ 0.433 µM).

On to `COc1ncccc1Nc1cc2nc3ccccc3n(-c3ccccc3OC(F)(F)F)c-2c/c1=N\C(C)C` [TBI-1046, 5-(2-Trifluoromethoxyphenyl)-3-(1-methylethyl)imino-2-(2-methoxy-3-pyridyl)amino-3,5-dihydrophenazine], for which the MIC under setting [2] is 0.44 µg/mL (≈ 0.847 µM). On the same count and under the same terms, with `FC(F)(F)Oc1cccc(-n2c3c/c(=N\C4CC4)c(Nc4cccnc4)cc-3nc3ccccc32)c1` [TBI-1021, 5-(3-Trifluoromethoxyphenyl)-3-cyclopropylimino-2-(3-pyridyl)amino-3,5-dihydrophenazine] the figure was 0.054 µg/mL (≈ 0.111 µM).

As to `CC(=O)Nc1ccc(Nc2cc3nc4ccccc4n(-c4ccc(F)cc4)c-3c/c2=N\C2CCN(CC(C)C)CC2)cn1` [TBI-913, 5-(4-Fluorophenyl)-3-(N-isobutyl-4-piperidyl)imino-2-(6-acetamino-3-pyridyl)amino-3,5-dihydrophenazine], the MIC under setting [2] is 0.144 µg/mL (≈ 0.249 µM). With `Fc1ccc(-n2c3c/c(=N\C4CC4)c(Nc4cccnc4)cc-3nc3ccccc32)cc1F` [TBI-1429, 5-(3,4-Difluorophenyl)-3-cyclopropylimino-2-(3-pyridyl)amino-3,5-dihydrophenazine], the MIC under setting [2] is 0.011 µg/mL (≈ 0.025 µM). As to `COc1ncccc1Nc1cc2nc3ccccc3n(-c3ccc(OC(F)(F)F)cc3)c-2c/c1=N\C1CCCCC1` [TBI-365, 5-(4-Trifluoromethoxyphenyl)-3-cyclohexylimino-2-(2-methoxy-3-pyridyl)amino-3,5-dihydrophenazine], under setting [2], the MIC was found to be 0.018 µg/mL (≈ 0.0322 µM).

For the molecule `Cc1ccc(Nc2cc3nc4ccc(F)cc4n(-c4ccc(Cl)c(Cl)c4)c-3c/c2=N\C(C)C)cn1` [TBI-896, 7-Fluoro-5-(3,4-dichlorophenyl)-3-(1-methylethyl)imino-2-(6-methyl-3-pyridyl)amino-3,5-dihydrophenazine], the MIC under setting [2] was 0.25 µg/mL (≈ 0.494 µM).

For the molecule `Cc1ccc(Nc2cc3nc4ccccc4n(-c4ccc(Br)cc4)c-3c/c2=N\C(C)C)cn1` [TBI-099, 5-(4-Bromophenyl)-3-(1-methylethyl)imino-2-(6-methyl-3-pyridyl)amino-3,5-dihydrophenazine], the MIC under setting [2] amounted to 0.049 µg/mL (≈ 0.0983 µM). Turning to `COc1ncccc1Nc1cc2nc3ccccc3n(-c3cccc(F)c3)c-2c/c1=N\C(C)C` [TBI-523], the MIC under setting [2] turned out to be 0.06 µg/mL (≈ 0.132 µM). Take `Fc1ccc(-n2c3c/c(=N\C4CCC4)c(Nc4cccnc4)cc-3nc3ccccc32)cc1` [TBI-923, 5-(4-Fluorophenyl)-3-cyclobutylimino-2-(3-pyridyl)amino-3,5-dihydrophenazine]: the MIC under setting [2] turned out to be 0.021 µg/mL (≈ 0.0482 µM). Still for that read-out and setting: with `COC1CCC(/N=c2\cc3n(-c4cccc(OC(F)(F)F)c4)c4ccccc4nc-3cc2Nc2cccnc2C)CC1` (stereo not drawn) [TBI-1033, 5-(3-Trifluoromethoxyphenyl)-3-(4-methoxycyclohexyl)imino-2-(2-methyl-3-pyridyl)amino-3,5-dihydrophenazine] the figure was 0.242 µg/mL (≈ 0.422 µM). As to `COc1ncccc1Nc1cc2nc3cc(F)ccc3n(-c3ccc(Cl)c(Cl)c3)c-2c/c1=N\C1CCC(OC)CC1` (stereo not drawn) [TBI-879, 8-Fluoro-5-(3,4-dichlorophenyl)-3-(4-methoxycyclohexyl)imino-2-(2-methoxy-3-pyridyl)amino-3,5-dihydrophenazine], under setting [2], the MIC stood at 0.109 µg/mL (≈ 0.184 µM).

As to `COc1ccc(Nc2cc3nc4ccccc4n(-c4ccc(F)cc4)c-3c/c2=N\C2CCC2)cn1` [TBI-934, 5-(4-Fluorophenyl)-3-cyclobutylimino-2-(6-methoxy-3-pyridyl)amino-3,5-dihydrophenazine], the MIC under setting [2] came out at 0.3 µg/mL (≈ 0.644 µM).

For `COCC(COC)/N=c1\cc2n(-c3cccc(Cl)c3)c3ccccc3nc-2cc1Nc1cccnc1OC` [TBI-825, 5-(3-Chlorophenyl)-3-(1,3-dimethoxyisopropyl)imino-2-(2-methoxy-3-pyridyl)amino-3,5-dihydrophenazine], the MIC under setting [2] worked out at 0.125 µg/mL (≈ 0.236 µM). For the molecule `COC1CCC(/N=c2\cc3n(-c4ccc(F)cc4)c4ccccc4nc-3cc2Nc2cncc(C)c2)CC1` (stereo not drawn) [TBI-1026], the MIC under setting [2] worked out at 0.121 µg/mL (≈ 0.238 µM). Take `Cc1ccc(-n2c3c/c(=N\C(C)C)c(Nc4ccc(C)nc4)cc-3nc3ccccc32)cc1` [TBI-315, 5-(4-Methylphenyl)-3-(1-methylethyl)imino-2-(6-methyl-3-pyridyl)amino-3,5-dihydrophenazine]: the MIC under setting [2] turned out to be 0.057 µg/mL (≈ 0.131 µM).

As for `Cc1ccc(-n2c3c/c(=N\C4CCN(CC(C)C)CC4)c(Nc4cccnc4C)cc-3nc3ccccc32)cc1` [TBI-325, 5-(4-Methylphenyl)-3-(N-isobutyl-4-piperidyl)imino-2-(2-methyl-3-pyridyl)amino-3,5-dihydrophenazine], the MIC under setting [2] amounted to 0.056 µg/mL (≈ 0.106 µM). As to `Cc1ccc(-n2c3c/c(=N\C4CCCCC4)c(Nc4ccc(C)nc4)cc-3nc3ccccc32)cc1` [TBI-306, 5-(4-Methylphenyl)-3-cyclohexylimino-2-(6-methyl-3-pyridyl)amino-3,5-dihydrophenazine], under setting [2], the MIC is 0.106 µg/mL (≈ 0.224 µM). Consider `COCC(C/N=c1\cc2n(-c3ccc(F)cc3)c3ccccc3nc-2cc1Nc1cccnc1OC)OC` (stereo not drawn) [TBI-1049, 5-(4-Fluorophenyl)-3-(2,3-dimethoxy-1-propyl)imino-2-(2-methoxy-3-pyridyl)amino-3,5-dihydrophenazine], for which, under setting [2], the MIC was found to be 0.162 µg/mL (≈ 0.315 µM). As to `CC(C)/N=c1\cc2n(-c3ccc(OC(F)(F)F)cc3)c3ccccc3nc-2cc1Nc1ccccn1` [TBI-952, 5-(4-Trifluoromethoxyphenyl)-3-(1-methylethyl)imino-2-(2-pyridyl)amino-3,5-dihydrophenazine], under setting [1], the MIC was 0.093 µg/mL (≈ 0.19 µM).

Consider `Cc1ncccc1Nc1cc2nc3ccccc3n(-c3ccc(Cl)cc3)c-2c/c1=N\C1CCOCC1` [TBI-452], for which the MIC under setting [2] worked out at 0.168 µg/mL (≈ 0.339 µM). As to `Clc1ccccc1-n1c2c/c(=N\C3CC3)c(Nc3cccnc3)cc-2nc2ccccc21` [TBI-892, 5-(2-Chlorophenyl)-3-cyclopropylimino-2-(3-pyridyl)amino-3,5-dihydrophenazine], the MIC under setting [2] came to 0.028 µg/mL (≈ 0.0639 µM). Still for that read-out and setting: with `COc1ncccc1Nc1cc2nc3ccccc3n(-c3ccc(Cl)cc3)c-2c/c1=N\C1CCN(C)CC1` [TBI-440, 5-(4-Chlorophenyl)-3-(N-methyl-4-piperidyl)imino-2-(2-methoxy-3-pyridyl)amino-3,5-dihydrophenazine] the figure was 0.06 µg/mL (≈ 0.114 µM); with `c1ccc(-n2c3c/c(=N\CCN4CCOCC4)c(Nc4cccnc4)cc-3nc3ccccc32)cc1` [TBI-056, 5-Phenyl-3-(2-morpholinoethyl)imino-2-(3-pyridyl)amino-3,5-dihydrophenazine], 0.25 µg/mL (≈ 0.525 µM); with `COc1ncccc1Nc1cc2nc3cc(C#N)ccc3n(-c3ccc(F)cc3)c-2c/c1=N\C1CCC(OC)CC1` (stereo not drawn) [TBI-1065, 8-Cyano-5-(4-fluorophenyl)-3-(4-methyoxycyclohexyl)imino-2-(2-methoxy-3-pyridyl)amino-3,5-dihydrophenazine], greater than 16 µg/mL.

As for `Cc1ccc(-n2c3c/c(=N\CCN4CCOCC4)c(Nc4cccnc4C)cc-3nc3ccccc32)cc1` [TBI-324, 5-(4-Methylphenyl)-3-(2-morpholinoethyl)imino-2-(2-methyl-3-pyridyl)amino-3,5-dihydrophenazine], the MIC under setting [2] is 0.12 µg/mL (≈ 0.238 µM).

Values taken from US8716292B2, “Riminophenazines with 2-(heteroaryl)amino substituents and their anti-microbial activity” (priority 2010, dated 2014).
